Results published in paper PMC8699473, “An Easily Expandable Multi-Drug LC-MS Assay for the Simultaneous Quantification of 57 Oral Antitumor Drugs in Human Plasma” (Cancers, 2021).
Values joined by “and” are separate entries in the source; they are usually repeats but may differ in a detail not shown here. Identical values can stand only once.

Key:
[1] = Plasma concentrations in patients on oral antitumor therapy (LC-MS); type: in vivo, human
Source text: The liquid chromatography-mass spectrometer system consisted of a Thermo Scientific Dionex UltiMate^TM 3000 with an integrated and temperature controlled autosampler (Thermo Fisher Scientific, Dreieich, Germany). An Acquity UPLC® BEH C18 column (2.1 × 100 mm, 1.7 µm; Waters, Milford, CT, USA) equipped with an Acquity UPLC® BEH C18 VanGuard^TM Pre-Column (2.1 × 5 mm, 1.7 µm; Waters, Milford, CT, USA) was used for chromatographic separation. The Q-Exactive^TM Focus mass spectrometer (MS) was hyphenated with a heated electrospray ionization (HESI) source (both from Thermo Fisher Scientific, Dreieich, Germany).
Chromatographic separation was achieved using a gradient elution with water containing 0.5% (v/v) FA (eluent A) and MeOH with 0.1% (v/v) FA (eluent B). The injection volume was 5 µL. The gradient program is shown in Supplement Table S2. The flow rate was 0.5 mL/min with a total run time of 15 min. The column heater was maintained at 50 °C and the autosampler temperature was 4 °C.
The following MS and HESI settings were maintained for all analyses: Sheath gas, auxiliary gas, and sweep gas flow rates were set to 60, 20, and 0, respectively. The spray voltage was 4000 V. Both capillary and auxiliary gas heater temperatures were set to 400 °C. High-purity nitrogen gas was used for the HESI source gases and for the bath gas of the C-trap. […] The HESI source was configured in positive mode for ionization.
The stock solutions were stored in glass vials at −80 °C. Aliquots of all stock solutions were combined in ACN (volumes of individual stock solution solvents are negligible) to obtain a standard solution of all analytes with an individual concentration of 200% of the respective trough level (cmin). Eight individual working standards were prepared by stepwise dilution of this standard solution with concentrations from 10 to 200% cmin (shown in Supplement Table S3). Furthermore, the four individual IS stock solutions were combined and diluted to 50 ng/mL with ACN. Calibration and validation standards were prepared by spiking 50 µL pooled human plasma with 10 µL of the respective working solution. Next, 250 µL IS solution (50 ng/mL in ACN) were added and vortexed vigorously. […] Then, 100 µL supernatant were transferred to 300 µL HPLC insert glass vials and diluted with 100 µL eluent (90% A/10% B). For blank samples, 50 µL pooled human plasma were combined with 10 µL ACN (instead of working solution) and prepared as described above. The calibration and validation standards were freshly prepared before every run. Patient plasma samples were prepared as calibration and validation standards (no additional processing step necessary), except for adding 10 µL ACN instead of 10 µL working standard. Before sample preparation, the frozen plasma samples were thawed in absence of light at 4 °C.
Blood samples were collected over the entire dosing interval from patients treated with an oral anticancer drug as listed in Supplement Table S4. […] A maximum of two samples at two different time points throughout the entire dosing interval were collected per patient. Treatment duration before collection was at least five half-lives (depending on the specific oral anticancer drug). The samples were collected in K3-EDTA tubes.
A total of 71 blood samples from 39 patients treated with 14 different oral anticancer drugs were collected (see Supplement Table S4 for details). All patients were recruited from independent outpatient clinics associated with the Comprehensive Cancer Center of the University Hospital Erlangen (CCC Erlangen-EMN). Of 71 blood samples, 41 were taken ±4 h of trough level (cmin).

[2] = Freeze-thaw stability in spiked pooled human plasma; type: physicochemical
[3] = Autosampler stability of ready for injection samples; type: physicochemical, human
[4] = design: method as in supplement references [1-55] as printed per drug; details: minimum steady-state blood plasma concentration after multiple dose administration; ref supplement references [1-55] per drug; cited from earlier work
[5] = Long-term stability in spiked pooled human plasma
[6] = Short-term stability in spiked pooled human plasma (bench-top, 4 °C, 56 °C)
[7] = patient plasma, all samples, r.c. = respective cmin

For CNC(=O)c1ccc(N2C(=S)N(c3ccc(C#N)c(C(F)(F)F)c3)C(=O)C2(C)C)cc1F [Enzalutamide], the “Measured plasma concentration” value ([1]; 160 mg/day, 24 h, ±4 h of trough level: yes) was 11296.4 ng/mL and 14087.2 ng/mL and 14395.8 ng/mL and 17580.7 ng/mL and 11074.7 ng/mL, the “Median Concentration of All Samples [% of r.c.]” value [1, 7] was 120.1 % of r.c and the “Min–Max Concentration [% of r.c.]” value [1, 7] was 97.1–154.2 % of r.c. The “Freeze-Thaw Accuracy [%]” value ([2]; validation standard 2xLLOV) was 97.8%, the “Freeze-Thaw Accuracy [%]” value ([2]; validation standard LLOV) was 87.6% and the “Freeze-Thaw Accuracy [%]” value ([2]; validation standard MOV) was 100.9%. For the same compound, the “Freeze-Thaw Accuracy [%]” value ([2]; validation standard ULOV) was 96.1%, the “Autosampler (24h, 4°C) Accuracy [%]” value ([3]; validation standard 2xLLOV) was 100.5% and the “Autosampler (72h, 4°C) Accuracy [%]” value ([3]; validation standard 2xLLOV) was 102.2%. For the same compound, the “Autosampler (24h, 4°C) Accuracy [%]” value ([3]; validation standard LLOV) was 89.9%, the “Autosampler (72h, 4°C) Accuracy [%]” value ([3]; validation standard LLOV) was 91.3% and the “Autosampler (24h, 4°C) Accuracy [%]” value ([3]; validation standard MOV) was 108.0%. The “Autosampler (72h, 4°C) Accuracy [%]” value ([3]; validation standard MOV) was 105.7%, the “Autosampler (24h, 4°C) Accuracy [%]” value ([3]; validation standard ULOV) was 101.7% and the “Autosampler (72h, 4°C) Accuracy [%]” value ([3]; validation standard ULOV) was 103.3%. For the same compound, the “cmin” value [4] was 11400 ng/mL, the “Long-term stability, 1 month, -20°C Accuracy [%]” value ([5]; validation standard 2xLLOV) was 92.7% and the “Long-term stability, 1 month, -80°C Accuracy [%]” value ([5]; validation standard 2xLLOV) was 87.8%. For the same compound, the “Long-term stability, 2 month, -20°C Accuracy [%]” value ([5]; validation standard 2xLLOV) was 91.5%, the “Long-term stability, 2 month, -80°C Accuracy [%]” value ([5]; validation standard 2xLLOV) was 92.9% and the “Long-term stability, 3 month, -20°C Accuracy [%]” value ([5]; validation standard 2xLLOV) was 87.1%. The “Long-term stability, 3 month, -80°C Accuracy [%]” value ([5]; validation standard 2xLLOV) was 89.0%, the “Long-term stability, 6 weeks, 4°C, without daylight Accuracy [%]” value ([5]; validation standard 2xLLOV) was 96.8% and the “Long-term stability, 1 month, -20°C Accuracy [%]” value ([5]; validation standard LLOV) was 92.6%. For the same compound, the “Long-term stability, 1 month, -80°C Accuracy [%]” value ([5]; validation standard LLOV) was 82.3%, the “Long-term stability, 2 month, -20°C Accuracy [%]” value ([5]; validation standard LLOV) was 90.2% and the “Long-term stability, 2 month, -80°C Accuracy [%]” value ([5]; validation standard LLOV) was 94.8%. For the same compound, the “Long-term stability, 3 month, -20°C Accuracy [%]” value ([5]; validation standard LLOV) was 88.7%, the “Long-term stability, 3 month, -80°C Accuracy [%]” value ([5]; validation standard LLOV) was 88.4% and the “Long-term stability, 6 weeks, 4°C, without daylight Accuracy [%]” value ([5]; validation standard LLOV) was 97.2%. For the same compound, the “Long-term stability, 1 month, -20°C Accuracy [%]” value ([5]; validation standard MOV) was 90.3%, the “Long-term stability, 1 month, -80°C Accuracy [%]” value ([5]; validation standard MOV) was 90.6% and the “Long-term stability, 2 month, -20°C Accuracy [%]” value ([5]; validation standard MOV) was 92.8%. For the same compound, the “Long-term stability, 2 month, -80°C Accuracy [%]” value ([5]; validation standard MOV) was 95.7%, the “Long-term stability, 3 month, -20°C Accuracy [%]” value ([5]; validation standard MOV) was 91.6% and the “Long-term stability, 3 month, -80°C Accuracy [%]” value ([5]; validation standard MOV) was 90.6%. The “Long-term stability, 6 weeks, 4°C, without daylight Accuracy [%]” value ([5]; validation standard MOV) was 105.1%, the “Long-term stability, 1 month, -20°C Accuracy [%]” value ([5]; validation standard ULOV) was 85.8% and the “Long-term stability, 1 month, -80°C Accuracy [%]” value ([5]; validation standard ULOV) was 86.1%. The “Long-term stability, 2 month, -20°C Accuracy [%]” value ([5]; validation standard ULOV) was 90.8%, the “Long-term stability, 2 month, -80°C Accuracy [%]” value ([5]; validation standard ULOV) was 90.3% and the “Long-term stability, 3 month, -20°C Accuracy [%]” value ([5]; validation standard ULOV) was 87.7%. The “Long-term stability, 3 month, -80°C Accuracy [%]” value ([5]; validation standard ULOV) was 87.3%, the “Long-term stability, 6 weeks, 4°C, without daylight Accuracy [%]” value ([5]; validation standard ULOV) was 95.0% and the “Short-time stability (1h, 56°C) Accuracy [%]” value ([6]; validation standard 2xLLOV) was 59.4%. The “Short-time stability (24h, 4°C, without daylight) Accuracy [%]” value ([6]; validation standard 2xLLOV) was 103.3%, the “Short-time stability (24h, RT, with daylight) Accuracy [%]” value ([6]; validation standard 2xLLOV) was 106.1% and the “Short-time stability (24h, RT, without daylight) Accuracy [%]” value ([6]; validation standard 2xLLOV) was 108.3%. For the same compound, the “Short-time stability (1h, 56°C) Accuracy [%]” value ([6]; validation standard LLOV) was 50.0%, the “Short-time stability (24h, 4°C, without daylight) Accuracy [%]” value ([6]; validation standard LLOV) was 102.0% and the “Short-time stability (24h, RT, with daylight) Accuracy [%]” value ([6]; validation standard LLOV) was 100.4%. The “Short-time stability (24h, RT, without daylight) Accuracy [%]” value ([6]; validation standard LLOV) was 103.0%, the “Short-time stability (1h, 56°C) Accuracy [%]” value ([6]; validation standard MOV) was 58.9% and the “Short-time stability (24h, 4°C, without daylight) Accuracy [%]” value ([6]; validation standard MOV) was 98.9%. For the same compound, the “Short-time stability (24h, RT, with daylight) Accuracy [%]” value ([6]; validation standard MOV) was 108.7%, the “Short-time stability (24h, RT, without daylight) Accuracy [%]” value ([6]; validation standard MOV) was 107.8% and the “Short-time stability (1h, 56°C) Accuracy [%]” value ([6]; validation standard ULOV) was 50.9%. The “Short-time stability (24h, 4°C, without daylight) Accuracy [%]” value ([6]; validation standard ULOV) was 95.8%, the “Short-time stability (24h, RT, with daylight) Accuracy [%]” value ([6]; validation standard ULOV) was 103.4% and the “Short-time stability (24h, RT, without daylight) Accuracy [%]” value ([6]; validation standard ULOV) was 103.8%.
